Test results: patent publication US20150038438A1, “ANTIBACTERIAL COMPOUNDS AND METHODS FOR USE” (PTC THERAPEUTICS, INC., priority 2011, published 2015)
≈ marks a conversion by molar mass, not a printed value. Counter-ions that a name gives are not always drawn.

How the values were obtained:
Test in all cases: Antibacterial activity, microbroth dilution method (MIC)
[1] = system: control Gram-negative E. coli 25922 strain; assay type: cell-based, Escherichia coli; details: Escherichia coli
Outline: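 Using broth microdilution, MIC endpoints (μg/mL) mark where visible growth no longer appears; the panel spans sensitive and control Gram-negative strains plus a Gram-positive strain.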

[2] = system: Gram-positive Staphylococcus aureus (S. aureus) 29213; assay type: cell-based; details: Staphylococcus aureus, Gram-positive S. aureus 29213
Outline: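 Lowest concentration stopping macroscopically visible growth under test conditions, by broth microdilution, defines the MIC (μg/mL).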

[3] = system: super sensitive Gram-negative Escherichia coli (E. coli) BAS849; assay type: cell-based; details: Escherichia coli; super sensitive Gram-negative E. coli BAS849; microbroth dilution; read-out: MIC, E. coli BAS849
Outline: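 Each strain is exposed to test compound in a microbroth dilution series; visible growth is scored macroscopically, and the lowest growth-free concentration is recorded as MIC in μg/mL.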

Structure (SMILES)	MIC [1]	MIC [2]	MIC [3]
Cl.Cn1c(CNC2(C)CC2)cc2cc3c(cc21)OCCc1c-3[nH]c(=O)c(C(=O)O)c1O [Cpd 167, 4-hydroxy-9-methyl-10-(((1-methylcyclopropyl)amino)methyl)-2-oxo-2,5,6,9-tetrahydro-1H-pyrido[2′,3′:4,5]oxepino[3,2-f]indole-3-carboxylic acid hydrochloride]	< 1 µg/mL	1 to 3.5 µg/mL	< 1 µg/mL
CNCc1cc2cc3c(cc2n1C)NCCCc1c-3[nH]c(=O)c(C(=O)O)c1O.Cl [Cpd 103, 4-hydroxy-10-methyl-11-((methylamino)methyl)-2-oxo-2,5,6,7,8,10-hexahydro-1H-pyrido[2′,3′:4,5]azocino[3,2-f]indole-3-carboxylic acid hydrochloride]	12.5 to 150 µg/mL	12.5 to 150 µg/mL	1 to 3.5 µg/mL
Cl.Cn1c(CN2CCC2)cc2cc3c(cc21)OCCc1c-3[nH]c(=O)c(C(=O)O)c1O [Cpd 91, 10-(azetidin-1-ylmethyl)-4-hydroxy-9-methyl-2-oxo-2,5,6,9-tetrahydro-1H-pyrido[2′,3′:4,5]oxepino[3,2-f]indole-3-carboxylic acid hydrochloride]	< 1 µg/mL	12.5 to 150 µg/mL	< 1 µg/mL
Cl.O=C(O)c1c(O)c2c([nH]c1=O)-c1ccc(N3CCNCC3)cc1CCC2 [Cpd 119, 4-hydroxy-2-oxo-9-(piperazin-1-yl)-2,5,6,7-tetrahydro-1H-benzo[6,7]cyclohepta[1,2-b]pyridine-3-carboxylic acid hydrochloride]	12.5 to 150 µg/mL	12.5 to 150 µg/mL	3.5 to 12.5 µg/mL
CN1CCc2c([nH]c(=O)c(C(=O)O)c2O)-c2ccc(N3CCCC3)cc21 [Cpd 93, 4-hydroxy-7-methyl-2-oxo-9-(pyrrolidin-1-yl)-2,5,6,7-tetrahydro-1H-benzo[b]pyrido[2,3-d]azepine-3-carboxylic acid]	12.5 to 150 µg/mL (≈ 35.2 to 422 µM)	12.5 to 150 µg/mL (≈ 35.2 to 422 µM)	3.5 to 12.5 µg/mL (≈ 9.85 to 35.2 µM)
N[C@@H]1[C@H]2CN(c3cc4c(c(F)c3F)-c3[nH]c(=O)c(C(=O)O)c(O)c3CCC4)C[C@@H]12 [Cpd 124, 9-((cis,cis)-6-amino-3-azabicyclo[3.1.0]hexan-3-yl)-10,11-difluoro-4-hydroxy-2-oxo-2,5,6,7-tetrahydro-1H-benzo[6,7]cyclohepta[1,2-b]pyridine-3-carboxylic acid hydrochloride]	3.5 to 12.5 µg/mL	12.5 to 150 µg/mL	< 1 µg/mL
C#CCNCc1cc2cc3c(cc2n1C)CCCc1c-3[nH]c(=O)c(C(=O)O)c1O.Cl [Cpd 45, 4-hydroxy-9-methyl-2-oxo-10-((prop-2-yn-1-ylamino)methyl)-1,2,5,6,7,9-hexahydropyrido[3′,2′:6,7]cyclohepta[1,2-f]indole-3-carboxylic acid hydrochloride]	1 to 3.5 µg/mL	1 to 3.5 µg/mL	< 1 µg/mL
CN(C)C1CCN(Cc2cc3cc4c(cc3n2C)CCCc2c-4[nH]c(=O)c(C(=O)O)c2O)C1.Cl.Cl (stereo not drawn) [Cpd 47, 10-((3-(dimethylamino)pyrrolidin-1-yl)methyl)-4-hydroxy-9-methyl-2-oxo-1,2,5,6,7,9-hexahydropyrido[3′,2′:6,7]cyclohepta[1,2-f]indole-3-carboxylic acid dihydrochloride]	3.5 to 12.5 µg/mL	3.5 to 12.5 µg/mL	< 1 µg/mL
N[C@@H]1[C@H]2CN(c3cc(F)c4c(c3)CCCc3c-4[nH]c(=O)c(C(=O)O)c3O)C[C@@H]12 [Cpd 125, 9-((cis,cis)-6-amino-3-azabicyclo[3.1.0]hexan-3-yl)-11-fluoro-4-hydroxy-2-oxo-2,5,6,7-tetrahydro-1H-benzo[6,7]cyclohepta[1,2-b]pyridine-3-carboxylic acid hydrochloride]	3.5 to 12.5 µg/mL	12.5 to 150 µg/mL	< 1 µg/mL
COCCNCc1cc2cc3c(cc2n1C)CCCc1c-3[nH]c(=O)c(C(=O)O)c1O.Cl [Cpd 148, 4-hydroxy-10-(((2-methoxyethyl)amino)methyl)-9-methyl-2-oxo-1,2,5,6,7,9-hexahydropyrido[3′,2′:6,7]cyclohepta[1,2-f]indole-3-carboxylic acid hydrochloride]	< 1 µg/mL	12.5 to 150 µg/mL	< 1 µg/mL
CC(CO)NCc1cc2cc3c(cc2n1C)OCCc1c-3[nH]c(=O)c(C(=O)O)c1O.Cl (stereo not drawn) [Cpd 178, 4-hydroxy-10-(((1-hydroxypropan-2-yl)amino)methyl)-9-methyl-2-oxo-2,5,6,9-tetrahydro-1H-pyrido[2′,3′:4,5]oxepino[3,2-f]indole-3-carboxylic acid hydrochloride]	12.5 to 150 µg/mL	12.5 to 150 µg/mL	< 1 µg/mL
CN(C)C1CCN(Cc2cc3cc4c(cc3n2C)CCCc2c-4[nH]c(=O)c(C(=O)O)c2O)CC1.Cl.Cl [Cpd 30, 10-((4-(dimethylamino)piperidin-1-yl)methyl)-4-hydroxy-9-methyl-2-oxo-1,2,5,6,7,9-hexahydropyrido[3′,2′:6,7]cyclohepta[1,2-f]indole-3-carboxylic acid dihydrochloride]	3.5 to 12.5 µg/mL	3.5 to 12.5 µg/mL	< 1 µg/mL
Cl.Cn1c(CN2CCCCC2)cc2cc3c(cc21)CCCc1c-3[nH]c(=O)c(C(=O)O)c1O [Cpd 40, 4-hydroxy-9-methyl-2-oxo-10-(piperidin-1-ylmethyl)-1,2,5,6,7,9-hexahydropyrido[3′,2′:6,7]cyclohepta[1,2-f]indole-3-carboxylic acid hydrochloride]	1 to 3.5 µg/mL	3.5 to 12.5 µg/mL	< 1 µg/mL
Cl.Cn1c(CN2CCOCC2)cc2cc3c(cc21)CCCc1c-3[nH]c(=O)c(C(=O)O)c1O [Cpd 41, 4-hydroxy-9-methyl-10-(morpholinomethyl)-2-oxo-1,2,5,6,7,9-hexahydropyrido[3′,2′:6,7]cyclohepta[1,2-f]indole-3-carboxylic acid hydrochloride]	3.5 to 12.5 µg/mL	1 to 3.5 µg/mL	< 1 µg/mL
Cl.O=C(O)c1c(O)c2c([nH]c1=O)-c1ccc(N3CCCNCC3)cc1CCC2 [Cpd 111, 9-(1,4-diazepan-1-yl)-4-hydroxy-2-oxo-2,5,6,7-tetrahydro-1H-benzo[6,7]cyclohepta[1,2-b]pyridine-3-carboxylic acid hydrochloride]	12.5 to 150 µg/mL	12.5 to 150 µg/mL	1 to 3.5 µg/mL
Cl.Cn1c(CN2CCC2)cc2cc3c(cc21)CCc1c-3[nH]c(=O)c(C(=O)O)c1O [Cpd 21, 9-(azetidin-1-ylmethyl)-4-hydroxy-8-methyl-2-oxo-2,5,6,8-tetrahydro-1H-indolo[6,5-h]quinoline-3-carboxylic acid hydrochloride]	3.5 to 12.5 µg/mL	12.5 to 150 µg/mL	1 to 3.5 µg/mL
Cl.Cn1c(CN2CCCC2)cc2cc3c(cc21)OCCc1c-3[nH]c(=O)c(C(=O)O)c1O [Cpd 174, 4-hydroxy-9-methyl-2-oxo-10-(pyrrolidin-1-ylmethyl)-2,5,6,9-tetrahydro-1H-pyrido[2′,3′:4,5]oxepino[3,2-f]indole-3-carboxylic acid hydrochloride]	1 to 3.5 µg/mL	12.5 to 150 µg/mL	< 1 µg/mL
CN[C@H]1[C@@H]2CN(c3ccc4c(c3)CCCc3c-4[nH]c(=O)c(C(=O)O)c3O)C[C@@H]21 [Cpd 11, 4-hydroxy-9-((cis,cis)-6-(methylamino)-3-azabicyclo[3.1.0]hexan-3-yl)-2-oxo-2,5,6,7-tetrahydro-1H-benzo[6,7]cyclohepta[1,2-b]pyridine-3-carboxylic acid hydrochloride]	1 to 3.5 µg/mL	3.5 to 12.5 µg/mL	< 1 µg/mL
CCCNCc1cc2cc3c(cc2n1C)OCCc1c-3[nH]c(=O)c(C(=O)O)c1O.Cl [Cpd 169, 4-hydroxy-9-methyl-2-oxo-10-((propylamino)methyl)-2,5,6,9-tetrahydro-1H-pyrido[2′,3′:4,5]oxepino[3,2-f]indole-3-carboxylic acid hydrochloride]	< 1 µg/mL	3.5 to 12.5 µg/mL	< 1 µg/mL
O=C(O)c1c(O)c2c([nH]c1=O)-c1ccc(N3CCCC3)cc1CCC2 [Cpd 7, 4-hydroxy-2-oxo-9-(pyrrolidin-1-yl)-2,5,6,7-tetrahydro-1H-benzo[6,7]cyclohepta[1,2-b]pyridine-3-carboxylic acid]	12.5 to 150 µg/mL (≈ 36.7 to 441 µM)	3.5 to 12.5 µg/mL (≈ 10.3 to 36.7 µM)	< 1 µg/mL
CCNCc1cc2cc3c(cc2n1C)Cc1c-3[nH]c(=O)c(C(=O)O)c1O.Cl [Cpd 19, 2-((ethylamino)methyl)-8-hydroxy-1-methyl-6-oxo-1,5,6,9-tetrahydropyrido[3′,2′:4,5]cyclopenta[1,2-f]indole-7-carboxylic acid hydrochloride]	12.5 to 150 µg/mL	12.5 to 150 µg/mL	12.5 to 150 µg/mL
CCNCc1cc2cc3c(cc2n1C)C=CCc1c-3[nH]c(=O)c(C(=O)O)c1O.Cl [Cpd 69, 10-((ethylamino)methyl)-4-hydroxy-9-methyl-2-oxo-1,2,5,9-tetrahydropyrido[3′,2′:6,7]cyclohepta[1,2-f]indole-3-carboxylic acid hydrochloride]	< 1 µg/mL	12.5 to 150 µg/mL	< 1 µg/mL
Cl.Cn1c(CNCCO)cc2cc3c(cc21)CCCc1c-3[nH]c(=O)c(C(=O)O)c1O [Cpd 147, 4-hydroxy-10-(((2-hydroxyethyl)amino)methyl)-9-methyl-2-oxo-1,2,5,6,7,9-hexahydropyrido[3′,2′:6,7]cyclohepta[1,2-f]indole-3-carboxylic acid hydrochloride]	3.5 to 12.5 µg/mL	12.5 to 150 µg/mL	< 1 µg/mL
Cn1c2c(c(O)c(C(=O)O)c1=O)CCCc1cc3c(ccn3C)cc1-2 [Cpd 134, 4-hydroxy-1,9-dimethyl-2-oxo-1,2,5,6,7,9-hexahydropyrido[3′,2′:6,7]cyclohepta[1,2-f]indole-3-carboxylic acid]	12.5 to 150 µg/mL (≈ 36.9 to 443 µM)	3.5 to 12.5 µg/mL (≈ 10.3 to 36.9 µM)	< 1 µg/mL
Cl.Cl.Cn1c(CN2CCCC(N)C2)cc2cc3c(cc21)CCCc1c-3[nH]c(=O)c(C(=O)O)c1O (stereo not drawn) [Cpd 31, 10-((3-aminopiperidin-1-yl)methyl)-4-hydroxy-9-methyl-2-oxo-1,2,5,6,7,9-hexahydropyrido[3′,2′:6,7]cyclohepta[1,2-f]indole-3-carboxylic acid dihydrochloride]	3.5 to 12.5 µg/mL	12.5 to 150 µg/mL	1 to 3.5 µg/mL
